# Results taken from PubChem BioAssay AID248 (DTP/NCI, 2004).
# Several values for one entry are separate records, joined by “and”; a condition that tells them apart may be missing. Identical values can stand only once. Toxic doses and inconclusive results are not listed.
# Test system: L1210 leukemia ip in BDF1 mice, survival T/C
# Test: NCI In Vivo Anticancer Drug Screen. Data for tumor model L1210 Leukemia (intraperitoneal) in B6D2F1 (BDF1) mice
# Settings: higher = longer survival
# Procedure, shortened: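 Transplantable tumor model; survival measured in treated vs vehicle control mice. Value = treated/control.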
smiles,measurement,setting,value
CN(N=O)C(=O)NC(C=O)C(O)C(O)C(O)CO (stereo not given),T/C,"endpoint: mean survival time, dose: 3.5 mg/kg/injection, schedule: Q#A X Z (ip), vehicle: saline",108 % of control
same,T/C,"endpoint: mean survival time, dose: 4.0 mg/kg/injection, schedule: Q#A X Z (ip), vehicle: saline",105 % of control
same,T/C,"endpoint: mean survival time, dose: 5.5 mg/kg/injection, schedule: Q#A X Z (ip), vehicle: saline",116 % of control
same,T/C,"endpoint: mean survival time, dose: 6.0 mg/kg/injection, schedule: Q01DX Z (ip), vehicle: saline",105 % of control
same,T/C,"endpoint: mean survival time, dose: 6.0 mg/kg/injection, schedule: Q#A X Z (ip), vehicle: saline",103 % of control
same,T/C,"endpoint: mean survival time, dose: 8.0 mg/kg/injection, schedule: Q01DX Z (ip), vehicle: saline",97 % of control
same,T/C,"endpoint: mean survival time, dose: 8.5 mg/kg/injection, schedule: Q#A X Z (ip), vehicle: saline",118 % of control
same,T/C,"endpoint: mean survival time, dose: 9.0 mg/kg/injection, schedule: Q#A X Z (ip), vehicle: saline",106 % of control
same,T/C,"endpoint: mean survival time, dose: 12.0 mg/kg/injection, schedule: Q01DX Z (ip), vehicle: saline",105 % of control and 106 % of control
same,T/C,"endpoint: mean survival time, dose: 12.5 mg/kg/injection, schedule: Q01DX009 (ip), vehicle: saline",95 % of control and 101 % of control
same,T/C,"endpoint: mean survival time, dose: 12.5 mg/kg/injection, schedule: Q01DX Z (ip), vehicle: saline",96 % of control and 101 % of control
same,T/C,"endpoint: mean survival time, dose: 18.0 mg/kg/injection, schedule: Q01DX Z (ip), vehicle: saline",108 % of control
same,T/C,"endpoint: mean survival time, dose: 24.5 mg/kg/injection, schedule: Q01DX Z (ip), vehicle: water",111 % of control
same,T/C,"endpoint: mean survival time, dose: 25.0 mg/kg/injection, schedule: Q01DX009 (ip), vehicle: saline",101 % of control and 103 % of control
same,T/C,"endpoint: mean survival time, dose: 25.0 mg/kg/injection, schedule: Q01DX Z (im), vehicle: saline",109 % of control
same,T/C,"endpoint: mean survival time, dose: 26.0 mg/kg/injection, schedule: Q01DX Z (ip), vehicle: saline",118 % of control
same,T/C,"endpoint: mean survival time, dose: 26.0 mg/kg/injection, schedule: Q01DX Z (sc), vehicle: saline",110 % of control
same,T/C,"endpoint: mean survival time, dose: 30.0 mg/kg/injection, schedule: Q#A X Z (ip), vehicle: saline",112 % of control
same,T/C,"endpoint: mean survival time, dose: 34.0 mg/kg/injection, schedule: Q03DX005 (ip), vehicle: saline",103 % of control
same,T/C,"endpoint: mean survival time, dose: 36.0 mg/kg/injection, schedule: Q03DX003 (ip), vehicle: saline",118 % of control
same,T/C,"endpoint: mean survival time, dose: 40.0 mg/kg/injection, schedule: Q01DX009 (iv), vehicle: saline",120 % of control
same,T/C,"endpoint: mean survival time, dose: 40.0 mg/kg/injection, schedule: Q01DX Z (ip), vehicle: saline",151 % of control
same,T/C,"endpoint: mean survival time, dose: 40.0 mg/kg/injection, schedule: Q01DX Z (sc), vehicle: saline",106 % of control and 107 % of control and 112 % of control
same,T/C,"endpoint: mean survival time, dose: 50.0 mg/kg/injection, schedule: Q01DX009 (ip), vehicle: saline",110 % of control and 111 % of control
same,T/C,"endpoint: mean survival time, dose: 50.0 mg/kg/injection, schedule: Q01DX Z (im), vehicle: saline",100 % of control
same,T/C,"endpoint: mean survival time, dose: 52.0 mg/kg/injection, schedule: Q03DX005 (ip), vehicle: saline",108 % of control
same,T/C,"endpoint: mean survival time, dose: 60.0 mg/kg/injection, schedule: Q01DX009 (iv), vehicle: saline",111 % of control
same,T/C,"endpoint: mean survival time, dose: 60.0 mg/kg/injection, schedule: Q01DX Z (ip), vehicle: saline",160 % of control
same,T/C,"endpoint: mean survival time, dose: 60.0 mg/kg/injection, schedule: Q01DX Z (iv), vehicle: saline",115 % of control
same,T/C,"endpoint: mean survival time, dose: 78.0 mg/kg/injection, schedule: Q03DX005 (ip), vehicle: saline",118 % of control
same,T/C,"endpoint: mean survival time, dose: 78.0 mg/kg/injection, schedule: Q03DX 5 (iv), vehicle: saline",117 % of control
same,T/C,"endpoint: mean survival time, dose: 80.0 mg/kg/injection, schedule: Q03DX004 (ip), vehicle: saline",151 % of control
same,T/C,"endpoint: mean survival time, dose: 80.0 mg/kg/injection, schedule: Q07DX001 (ip), vehicle: saline",124 % of control
same,T/C,"endpoint: mean survival time, dose: 90.0 mg/kg/injection, schedule: Q01DX 1 (iv), vehicle: saline",118 % of control
same,T/C,"endpoint: mean survival time, dose: 90.0 mg/kg/injection, schedule: Q01DX009 (iv), vehicle: saline",115 % of control
same,T/C,"endpoint: mean survival time, dose: 90.0 mg/kg/injection, schedule: Q01DX Z (ip), vehicle: saline",152 % of control and 166 % of control
same,T/C,"endpoint: mean survival time, dose: 90.0 mg/kg/injection, schedule: Q01DX Z (iv), vehicle: saline",121 % of control
same,T/C,"endpoint: mean survival time, dose: 90.0 mg/kg/injection, schedule: Q03DX 5 (iv), vehicle: saline",114 % of control
same,T/C,"endpoint: mean survival time, dose: 90.0 mg/kg/injection, schedule: Q07DX 2 (iv), vehicle: saline",106 % of control
same,T/C,"endpoint: mean survival time, dose: 99.5 mg/kg/injection, schedule: Q01DX Z (ip), vehicle: water",111 % of control
same,T/C,"endpoint: mean survival time, dose: 100.0 mg/kg/injection, schedule: Q01DX009 (ip), vehicle: saline",101 % of control and 120 % of control
same,T/C,"endpoint: mean survival time, dose: 100.0 mg/kg/injection, schedule: Q01DX Z (im), vehicle: saline",120 % of control and 124 % of control
same,T/C,"endpoint: mean survival time, dose: 100.0 mg/kg/injection, schedule: Q01DX Z (oral), vehicle: saline",111 % of control
same,T/C,"endpoint: mean survival time, dose: 104.0 mg/kg/injection, schedule: Q01DX Z (oral), vehicle: saline",101 % of control
same,T/C,"endpoint: mean survival time, dose: 120.0 mg/kg/injection, schedule: Q01DX001 (ip), vehicle: saline",119 % of control
same,T/C,"endpoint: mean survival time, dose: 120.0 mg/kg/injection, schedule: Q01DX 1 (iv), vehicle: saline",112 % of control
same,T/C,"endpoint: mean survival time, dose: 120.0 mg/kg/injection, schedule: Q07DX 2 (iv), vehicle: saline",102 % of control
same,T/C,"endpoint: mean survival time, dose: 125.0 mg/kg/injection, schedule: Q01DX001 (ip), vehicle: saline",114 % of control
same,T/C,"endpoint: mean survival time, dose: 135.0 mg/kg/injection, schedule: Q01DX Z (iv), vehicle: saline",95 % of control
same,T/C,"endpoint: mean survival time, dose: 135.0 mg/kg/injection, schedule: Q01DX Z (sc), vehicle: saline",108 % of control and 91 % of control and 92 % of control
same,T/C,"endpoint: mean survival time, dose: 160.0 mg/kg/injection, schedule: Q01DX Z (oral), vehicle: saline",101 % of control
same,T/C,"endpoint: mean survival time, dose: 180.0 mg/kg/injection, schedule: Q01DX 1 (iv), vehicle: saline",109 % of control
same,T/C,"endpoint: mean survival time, dose: 180.0 mg/kg/injection, schedule: Q03DX Z (ip), vehicle: saline",151 % of control
same,T/C,"endpoint: mean survival time, dose: 180.0 mg/kg/injection, schedule: Q07DX 2 (iv), vehicle: saline",111 % of control
same,T/C,"endpoint: mean survival time, dose: 182.0 mg/kg/injection, schedule: Q07DX Z (ip), vehicle: saline",123 % of control
same,T/C,"endpoint: mean survival time, dose: 200.0 mg/kg/injection, schedule: Q01DX009 (ip), vehicle: saline",90 % of control
same,T/C,"endpoint: mean survival time, dose: 200.0 mg/kg/injection, schedule: Q01DX Z (im), vehicle: saline",91 % of control
same,T/C,"endpoint: mean survival time, dose: 200.0 mg/kg/injection, schedule: Q01DX Z (ip), vehicle: saline",87 % of control
same,T/C,"endpoint: mean survival time, dose: 200.0 mg/kg/injection, schedule: Q01DX Z (oral), vehicle: saline",105 % of control
same,T/C,"endpoint: mean survival time, dose: 240.0 mg/kg/injection, schedule: Q01DX Z (oral), vehicle: saline",101 % of control
same,T/C,"endpoint: mean survival time, dose: 250.0 mg/kg/injection, schedule: Q01DX001 (ip), vehicle: saline",115 % of control
same,T/C,"endpoint: mean survival time, dose: 270.0 mg/kg/injection, schedule: Q01DX 1 (iv), vehicle: saline",98 % of control
same,T/C,"endpoint: mean survival time, dose: 270.0 mg/kg/injection, schedule: Q07DX 2 (iv), vehicle: saline",106 % of control
same,T/C,"endpoint: mean survival time, dose: 400.0 mg/kg/injection, schedule: Q01DX Z (oral), vehicle: saline",117 % of control
same,T/C,"endpoint: mean survival time, dose: 405.0 mg/kg/injection, schedule: Q01DX001 (ip), vehicle: saline",108 % of control and 89 % of control
same,T/C,"endpoint: mean survival time, dose: 420.0 mg/kg/injection, schedule: Q07DX Z (ip), vehicle: saline",93 % of control
same,T/C,"endpoint: mean survival time, dose: 500.0 mg/kg/injection, schedule: Q01DX001 (ip), vehicle: saline",117 % of control
same,T/C,"endpoint: mean survival time, dose: 540.0 mg/kg/injection, schedule: Q01DX Z (oral), vehicle: saline",95 % of control
same,T/C,"endpoint: mean survival time, dose: 800.0 mg/kg/injection, schedule: Q01DX Z (oral), vehicle: saline",105 % of control
same,T/C,"endpoint: mean survival time, dose: 1000.0 mg/kg/injection, schedule: Q01DX001 (ip), vehicle: saline",97 % of control
same,T/C,"endpoint: median survival time, dose: 25.0 mg/kg/injection, schedule: Q01DX017 (ip), vehicle: water",122 % of control
same,T/C,"endpoint: median survival time, dose: 50.0 mg/kg/injection, schedule: Q01DX017 (ip), vehicle: water",150 % of control
CCOC(=O)c1cnc2ccccc2c1Cl,T/C,"endpoint: mean survival time, dose: 100.0 mg/kg/injection, schedule: Q01DX001 (ip), vehicle: saline",103 % of control and 87 % of control
same,T/C,"endpoint: mean survival time, dose: 200.0 mg/kg/injection, schedule: Q01DX001 (ip), vehicle: saline",105 % of control
same,T/C,"endpoint: mean survival time, dose: 400.0 mg/kg/injection, schedule: Q01DX001 (ip), vehicle: saline",103 % of control
